Measured values as given in US20100169988A1, “MEANS AND METHODS FOR ISOLATING AND DETERMINING NOVEL TARGETS FOR THE TREATMENT OF NEURODEGENERATIVE, NEUROLOGICAL OR NEUROPSYCHIATRIC DISORDERS AND COMPOSITIONS COMPRISING THE SAME” (priority 2006, published 2010).

Molecular target: T1, γ-secretase (Homo sapiens, UniProt P49768)
T1 construct: endogenous in cells; host or cells: cells transfected with α-/β-CTF-Citrine constructs
Test: Subcellular localization of Citrine-labeled α-CTF/β-CTF constructs
Assay type: cell-based
Conditions: Hek 293 cells transfected with α-CTF or β-CTF Citrine constructs
From the text: In a first step, the CTF constructs alone were transfected, without any additional influence on subcellular localization and an entirely homogeneous distribution of Citrine fluorescence throughout the cell was observed. Like APP, these constructs first require cleavage of the signal peptide by Signal Peptidase. However, these “precleaved” CTFs never require ectodomain-shedding in the conventional sense of α- or β-secretase cleavage, which is time consuming not only because of the cleavage step alone, but because of the protein trafficking required to make APP accessible to the secretases. PS cleavage was therefore assumed to take place much more rapidly than is the case for wtAPP, whereupon the same experiments were performed with γ-secretase inhibitor L-685,458 aiming at prolonging the half-life of the uncleaved CTFs. […] Apart from this stabilization, however, no obvious difference was discerned between the subcellular localization of the two constructs.
Subcellular protein distribution of fluorescently tagged proteins or proteins stained as described supra was analyzed on a Leica TCS/SP2 confocal microscope. Pictures were acquired at a resolution of 1024×1024 using the 63×H2O immersion objective. Typically, 5-8 z-axis sections were recorded across the entire height of embedded cells so that typical section separations were 0.5 μm. […]

CC(C)C[C@H](NC(=O)[C@H](Cc1ccccc1)C[C@@H](O)[C@H](Cc1ccccc1)NC(=O)OC(C)(C)C)C(=O)N[C@@H](Cc1ccccc1)C(N)=O [L-685,458]
subcellular localization of uncleaved CTF-Citrine: accumulation in ER and Golgi was observed
